Test results from patent publication US20080161288A1, “COMPOUNDS” (Pfizer Inc., priority 2006, published 2008).
Structures can show the parent of a compound that is named as a salt.

Key:
[1] = target: T1, porcine beta-2 adrenoceptor (Sus scrofa, UniProt Q28997); assay: cAMP assay in CHO cells transfected with the porcine beta-2 adrenoceptor; assay type: cell-based; conditions: cAMP (DiscoveRx Hit Hunter cAMP II) in CHO cells transfected with porcine beta-2 adrenoceptor, 30 minutes with compound, 0.5 mM IBMX
T1 construct: expressed in transfected cells; host or cells: CHO cells
T1 sequence (Q28997 whole entry): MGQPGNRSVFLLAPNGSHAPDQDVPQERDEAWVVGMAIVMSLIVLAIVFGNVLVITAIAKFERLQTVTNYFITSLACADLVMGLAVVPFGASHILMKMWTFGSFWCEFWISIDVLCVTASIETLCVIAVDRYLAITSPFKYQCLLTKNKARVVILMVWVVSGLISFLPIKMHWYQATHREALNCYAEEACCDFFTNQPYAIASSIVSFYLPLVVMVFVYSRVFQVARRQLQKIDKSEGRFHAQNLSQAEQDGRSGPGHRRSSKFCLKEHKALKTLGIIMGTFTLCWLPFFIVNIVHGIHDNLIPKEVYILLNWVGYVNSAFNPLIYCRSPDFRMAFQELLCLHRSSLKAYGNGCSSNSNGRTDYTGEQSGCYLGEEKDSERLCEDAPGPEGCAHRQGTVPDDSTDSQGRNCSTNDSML
Method: (§1) CHO cells transfected with the bovine or porcine beta-2 adrenceptors were maintained in culture in DMEM/HAMS F12+10% FBS+2 mM glutamine+500 μg/ml geneticin (for the porcine receptor the medium was supplement with 1.5 mM HEPES) at 37° C. with a 5% CO2 atmosphere.
(§2) Cells were plated into 96 well viewplates in medium and incubated overnight at 37° C. with a 5% CO2 atmosphere. The cells were pre-incubated with 0.5 mM IBMX in PBS for 30 minutes prior to incubation with increasing concentrations of experimental compound (5×10^−12 to 10^−5 M) for 30 minutes at 37° C. with a 5% CO2 atmosphere. At the end of the incubation time the compound was removed and the cells assayed for cAMP using the DiscoveRx Hit Hunter cAMP II™ assay kit.
(§3) Duplicate samples were run for each experimental compound and the data generated was analysed using EC50 analysis software in Graphpad Prism.

[2] = target: T2, bovine beta-2 adrenoceptor (Bos taurus, UniProt Q28044); assay: cAMP assay in CHO cells transfected with the bovine beta-2 adrenoceptor; assay type: cell-based; conditions: cAMP (DiscoveRx Hit Hunter cAMP II) in CHO cells transfected with bovine beta-2 adrenoceptor, 30 minutes with compound, 0.5 mM IBMX
T2 construct: expressed in transfected cells; host or cells: CHO cells
T2 sequence (Q28044 whole entry): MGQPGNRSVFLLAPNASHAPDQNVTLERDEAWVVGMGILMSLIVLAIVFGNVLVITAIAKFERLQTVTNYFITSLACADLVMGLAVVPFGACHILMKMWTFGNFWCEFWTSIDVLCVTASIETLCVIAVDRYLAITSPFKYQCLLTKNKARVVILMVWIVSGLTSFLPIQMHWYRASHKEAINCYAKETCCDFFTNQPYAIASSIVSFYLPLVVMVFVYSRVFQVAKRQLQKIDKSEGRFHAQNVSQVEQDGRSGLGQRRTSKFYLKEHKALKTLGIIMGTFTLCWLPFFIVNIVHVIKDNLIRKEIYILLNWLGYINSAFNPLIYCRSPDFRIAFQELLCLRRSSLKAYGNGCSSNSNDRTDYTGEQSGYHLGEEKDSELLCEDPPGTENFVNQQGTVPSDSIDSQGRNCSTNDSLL
Method: as §1, §2, §3

CC(CCc1ccc(O)cc1)N[C@@H]1CCn2c(=O)[nH]c3cccc(c32)[C@H]1O (single isomer, unassigned) [Example 2c, 7-Hydroxy-6-{[3-(4-hydroxyphenyl)-1-methylpropyl]amino}-4,5,6,7-tetrahydroimidazo[4,5,1-jk][1]benzazepin-2(1H)-on]
EC50 [1]: 2.9 nM | EC50 [2]: 13.1 nM

CC(CCc1ccc(O)cc1)N[C@@H]1CCn2c(=O)[nH]c3cccc(c32)[C@H]1O (single isomer, unassigned) [Example 2d, 7-Hydroxy-6-{[3-(4-hydroxyphenyl)-1-methylpropyl]amino}-4,5,6,7-tetrahydroimidazo[4,5,1-jk][1]benzazepin-2(1H)-on]
EC50 [1]: 1.9 nM | EC50 [2]: 3.6 nM

CC(CCc1cccc(F)c1O)N[C@@H]1CCn2c(=O)[nH]c3cccc(c32)[C@H]1O (single isomer, unassigned) [Example 28a]
EC50 [1]: 1.8 nM | EC50 [2]: 1.5 nM

Cc1ccccc1CCC(C)N[C@@H]1CCn2c(=O)[nH]c3cccc(c32)[C@H]1O (mixture of isomers) [Example 13b, 7-hydroxy-6-{[1-Methyl-3-(2-methylphenyl)propyl]amino}-4,5,6,7-tetrahydroimidazo[4,5,1-jk][1]benzazepin-2(1H)-one]
EC50 [1]: 0.9 nM | EC50 [2]: 2 nM

CC(CCc1ccccc1O)N[C@@H]1CCn2c(=O)[nH]c3cccc(c32)[C@H]1O (single isomer, unassigned) [Example 48, Hydrochloride salt of 7-hydroxy-6-{[3-(2-hydroxyphenyl)-1-methylpropyl]amino}-4,5,6,7-tetrahydroimidazo[4,5,1-jk][1]benzazepin-2(1H)-one]
EC50 [1]: 1.9 nM | EC50 [2]: 1 nM

CC(CCc1ccc(NS(=O)(=O)C(F)(F)F)cc1)NC1CCn2c(=O)[nH]c3cccc(c32)C1O (single isomer, unassigned) [Example 69, 1,1,1-Trifluoro-N-{4-[3-{[7-hydroxy-2-oxo-1,2,4,5,6,7-hexahydroimidazo[4,5,1-jk][1]benzazepin-6-yl]amino}butyl]phenyl}methanesulfonamide]
EC50 [1]: 50.3 nM | EC50 [2]: 234 nM

CC(/C=C/c1ccccc1NS(C)(=O)=O)N[C@@H]1CCn2c(=O)[nH]c3cccc(c32)[C@H]1O (mixture of isomers) [Example 42, N-{2-[3-{[7-Hydroxy-2-oxo-1,2,4,5,6,7-hexahydroimidazo[4,5,1-jk][1]benzazepin-6-yl]amino}but-1-en-1-yl]phenyl}methanesulfonamide]
EC50 [1]: 104 nM | EC50 [2]: 258 nM

CC(CCc1cc(Br)cc(Br)c1O)N[C@@H]1CCn2c(=O)[nH]c3cccc(c32)[C@H]1O (mixture of isomers) [Example 47, 6-{[3-(3,5-Dibromo-2-hydroxyphenyl)-1-methylpropyl]amino}-7-hydroxy-4,5,6,7-tetrahydroimidazo[4,5,1-jk][1]benzazepin-2(1H)-one]
EC50 [1]: > 300 nM | EC50 [2]: > 200 nM

CC(/C=C/c1ccccc1F)N[C@@H]1CCn2c(=O)[nH]c3cccc(c32)[C@H]1O (single isomer, unassigned) [Example 40a, 6-{[3-(2-Fluorophenyl)-1-methylprop-2-en-1-yl]amino}-7-hydroxy-4,5,6,7-tetrahydroimidazo[4,5,1-jk][1]benzazepin-2(1H)-one]
EC50 [1]: 65.1 nM | EC50 [2]: 242 nM

CC(CCc1ccc(O)c(F)c1F)NC1CCn2c(=O)[nH]c3cccc(c32)C1O (single isomer, unassigned) [Example 37, 6-{[3-(2,3-Difluoro-4-hydroxyphenyl)-1-methylpropyl]amino}-7-hydroxy-4,5,6,7-tetrahydroimidazo[4,5,1-jk][1]benzazepin-2(1H)-one]
EC50 [1]: 1.9 nM | EC50 [2]: 2.8 nM

CC(/C=C/c1ccccc1F)N[C@@H]1CCn2c(=O)[nH]c3cccc(c32)[C@H]1O (single isomer, unassigned) [Example 40b, 6-{[3-(2-Fluorophenyl)-1-methylprop-2-en-1-yl]amino}-7-hydroxy-4,5,6,7-tetrahydroimidazo[4,5,1-jk][1]benzazepin-2(1H)-one]
EC50 [1]: 18 nM | EC50 [2]: 33.2 nM

C[C@H](CCc1ccc(N)cc1)N[C@@H]1CCn2c(=O)[nH]c3cccc(c32)[C@H]1O (single isomer, unassigned) [Example 45, 6-{[3-(4-Aminophenyl)-1-methylpropyl]amino}-7-hydroxy-4,5,6,7-tetrahydroimidazo[4,5,1-jk][1]benzazepin-2(1H)-one]
EC50 [1]: 21 nM | EC50 [2]: 30.3 nM

C[C@@H](CCc1cccc(NC(=O)C(F)(F)F)c1)N[C@@H]1CCn2c(=O)[nH]c3cccc(c32)[C@H]1O (single isomer, unassigned) [Example 57, 2,2,2-Trifluoro-N-{3-[3-{[7-hydroxy-2-oxo-1,2,4,5,6,7-hexahydroimidazo[4,5,1-jk][1]benzazepin-6-yl]amino}butyl]phenyl}acetamide]
EC50 [1]: 7.1 nM | EC50 [2]: 6.1 nM

COc1ccccc1CCC(C)N[C@@H]1CCn2c(=O)[nH]c3cccc(c32)[C@H]1O (mixture of isomers) [Example 20, 7-Hydroxy-6-{[3-(2-methoxyphenyl)-1-methylpropyl]amino}-4,5,6,7-tetrahydroimidazo[4,5,1-jk][1]benzazepin-2(1H)-one]
EC50 [1]: 35.8 nM | EC50 [2]: 7.5 nM

CC(=O)Nc1ccccc1CCC(C)NC1CCn2c(=O)[nH]c3cccc(c32)C1O (single isomer, unassigned) [Example 63, N-{2-[3-{[7-Hydroxy-2-oxo-1,2,4,5,6,7-hexahydroimidazo[4,5,1-jk][1]benzazepin-6-yl]amino}butyl]phenyl}acetamide]
EC50 [1]: 40.8 nM | EC50 [2]: 39.2 nM

CCC(=O)Nc1cccc(CCC(C)NC2CCn3c(=O)[nH]c4cccc(c43)C2O)c1 (single isomer, unassigned) [Example 61, N-{3-[3-{[7-Hydroxy-2-oxo-1,2,4,5,6,7-hexahydroimidazo[4,5,1-jk][1]benzazepin-6-yl]amino}butyl]phenyl}propanamide]
EC50 [1]: 12.5 nM | EC50 [2]: 12 nM

CC(CCc1ccc(C(F)(F)F)cc1)N[C@@H]1CCn2c(=O)[nH]c3cccc(c32)[C@H]1O (mixture of isomers) [Example 18, 7-Hydroxy-6-({1-methyl-3-[4-(trifluoromethyl)phenyl]propyl}amino)-4,5,6,7-tetrahydroimidazo[4,5,1-jk][1]benzazepin-2(1H)-one]
EC50 [1]: 10.7 nM | EC50 [2]: 29.6 nM

Cc1cc(CCC(C)NC2CCn3c(=O)[nH]c4cccc(c43)C2O)cc(C)c1O (centres unmarked) [Example 15, 7-Hydroxy-6-{[3-(4-hydroxy-3,5-dimethylphenyl)-1-methylpropyl]amino}-4,5,6,7-tetrahydroimidazo[4,5,1-jk][1]benzazepin-2(1H)-one]
EC50 [1]: 48.7 nM | EC50 [2]: 221 nM

C[C@H](CCc1cccc(Cl)c1O)N[C@@H]1CCn2c(=O)[nH]c3cccc(c32)[C@H]1O (single isomer, unassigned) [Example 5c]
EC50 [1]: 6 nM | EC50 [2]: 2.7 nM

CC(CCc1ccccc1O)N[C@@H]1CCn2c(=O)[nH]c3cccc(c32)[C@H]1O (mixture of isomers) [Example 6b, 7-Hydroxy-6-{[3-(2-hydroxyphenyl)-1-methylpropyl]amino}-4,5,6,7-tetrahydroimidazo[4,5,1-jk][1]benzazepin-2(1H)-one]
EC50 [1]: 1.4 nM | EC50 [2]: 2 nM

CC(CCc1cccc(O)c1)NC1CCn2c(=O)[nH]c3cccc(c32)C1O (single isomer, unassigned) [Example 39, 7-Hydroxy-6-{[3-(3-hydroxyphenyl)-1-methylpropyl]amino}-4,5,6,7-tetrahydroimidazo[4,5,1-jk][1]benzazepin-2(1H)-one]
EC50 [1]: 5.6 nM | EC50 [2]: 7.5 nM

CCS(=O)(=O)Nc1ccccc1CCC(C)NC1CCn2c(=O)[nH]c3cccc(c32)C1O (single isomer, unassigned) [Example 56, N-{2-[3-{[7-Hydroxy-2-oxo-1,2,4,5,6,7-hexahydroimidazo[4,5,1-jk][1]benzazepin-6-yl]amino}butyl]phenyl}ethanesulfonamide]
EC50 [1]: 2.8 nM | EC50 [2]: 5.2 nM

CC(CCc1cc(F)cc(F)c1O)N[C@@H]1CCn2c(=O)[nH]c3cccc(c32)[C@H]1O (mixture of isomers) [Example 10b, 6-{[3-(3,5-Difluoro-2-hydroxyphenyl)-1-methylpropyl]amino}-7-hydroxy-4,5,6,7-tetrahydroimidazo[4,5,1-jk][1]benzazepin-2(1H)-one]
EC50 [1]: 1.7 nM | EC50 [2]: 0.8 nM

CC(CCc1ccc(O)c(F)c1)NC1CCn2c(=O)[nH]c3cccc(c32)C1O (single isomer, unassigned) [Example 58, 6-{[3-(3-Fluoro-4-hydroxyphenyl)-1-methylpropyl]amino}-7-hydroxy-4,5,6,7-tetrahydroimidazo[4,5,1-jk][1]benzazepin-2(1H)-one]
EC50 [1]: 2.4 nM | EC50 [2]: 1.1 nM

CC(CCc1ccc(NS(=O)(=O)c2ccccc2)cc1)NC1CCn2c(=O)[nH]c3cccc(c32)C1O (single isomer, unassigned) [Example 67, N-{4-[3-{[7-Hydroxy-2-oxo-1,2,4,5,6,7-hexahydroimidazo[4,5,1-jk][1]benzazepin-6-yl]amino}butyl]phenyl}benzenesulfonamide]
EC50 [2]: 156 nM

CC(CCc1ccccc1NS(C)(=O)=O)N[C@@H]1CCn2c(=O)[nH]c3cccc(c32)[C@H]1O (mixture of isomers) [Example 33, N-[2-(3-{[7-Hydroxy-2-oxo-1,2,4,5,6,7-hexahydroimidazo[4,5,1-jk][1]benzazepin-6-yl]amino}butyl)phenyl]methanesulfonamide]
EC50 [1]: 11.9 nM
